# Data reported in patent US6476060B2, “4,5-dihydro-1H-pyrazole derivatives having CB1-antagonistic activity” (Solvay Pharmaceuticals, B.V., priority 2000, dated 2002).
row,melting point [°C],SMILES
1,118 to 119,"O=S(=O)(CCN1CC(c2ccccc2)C(c2ccc(Cl)cc2)=N1)c1cccc(C(F)(F)F)c1 (stereo not drawn) [VIII, 3-(4-Chlorophenyl)-4,5-dihydro-4-phenyl-1-[2-((3-(trifluoromethyl)phenyl)-sulfonyl)ethyl]-1H-pyrazole]"
2,94 to 96,"O=S(=O)(NCCN1CC(c2ccccc2)C(c2ccc(Cl)cc2)=N1)c1cccc(C(F)(F)F)c1 (stereo not drawn) [IX, N-[2-(3-(4-Chlorophenyl)-4,5-dihydro-4-phenyl-1H-pyrazol-1-yl)ethyl]-3-(trifluoromethyl)benzenesulfonamide]"
3,180 to 182,"CNC(=NC(=O)c1cccc(C(F)(F)F)c1)N1CC(c2ccccc2)C(c2ccc(Cl)cc2)=N1 (stereo not drawn) [V, N-Methyl-N′-(3-(trifluoromethyl)benzoyl)-3-(4-chlorophenyl)-4,5-dihydro-4-phenyl-1H-pyrazole-1-carboxamidine]"
